Where “and” joins values, the source holds several entries; their conditions need not be identical. Equal entries are not always repeated.
Columns and labels:
mice = conditions: cited from earlier work
Rat GABAA Ion Channel = experiment: Non-selective Rat GABAA Ion Channel [3H] TBOB Binding (Antagonist Radioligand) Assay; conditions: displacement of [3H] TBOB, rat cerebral cortex GABAA receptors
Description: A Non-selective Rat GABAA Ion Channel [3H] TBOB Binding (Antagonist Radioligand) Assay (Catalog #3817) was conducted by Eurofins Pharma Discovery Service of Eurofins Cerep, France. The assay is based on these publications: Lewin, A. H. et al. Mol. Pharmacol. 1989, 35, 189, and Schwartz, R. D.; Mindlin, M. C. J. Pharmacol. Exp. Ther. 1987, 244, 963.
Compound binding was calculated as a percentage inhibition of the binding of the radioactive ligand [3H] TBOB (t-[3H]Butylbicycloorthobenzoate) for RAT GABAA Ion Channels.
A 20.0 mM stock solution was prepared in DMSO from pure solid 5-methyl-picrotoxinin (20) to evaluate radioligand displacement of [3H] TBOB from rat cerebral cortex GABAA receptors at final concentrations of 200 μM, 63 μM, 20 μM, 6.3 μM, 2.0 μM, and 0.6 μM.

[1] = Hydrolytic stability study in pH 8 phosphate buffer (NMR monitoring); type: physicochemical; conditions: for Concentration over Time: 100 mM phosphate buffer pH=8 (D2O); for ln of concentration: pH=8 buffer
Description: In separate 5 mm NMR tubes, picrotoxinin (1, 1 mg) or 5-methyl picrotoxinin (20, 1 mg) were dissolved in 1 mL of 100 mM phosphate buffer (pH=8, prepared with D20). Spectra were acquired at 0, 6, 12, 24, 36, 48, 60, 72, 84, 96, and 120 h. and monitored for the amount of hydrolysis product (Table 1).

Structure (SMILES): C[C@@H]1CC[C@]23OC(=O)[C@@]4(O)O[C@H](C[C@@]124)[C@@]1(O)C(=O)OC[C@@]31C [jiadifenolide]
- convulsive signature (mice): no convulsive signature

Structure (SMILES): C=C(C)C1C2OC(=O)C1C1(O)C[C@H]3O[C@]34C(=O)OC2C14C (single isomer, unassigned; (-)) [compound 1, (−)-picrotoxinin]
- IC50 (Rat GABAA Ion Channel): 0.2 µM
- Ki (Rat GABAA Ion Channel): 0.2 µM
- Concentration over Time ([1]; 0 h): 3420 µM
- Concentration over Time ([1]; 6 h): 3257 µM
- Concentration over Time ([1]; 12 h): 2974 µM
- Concentration over Time ([1]; 24 h): 2124 µM
- Concentration over Time ([1]; 36 h): 1879 µM
- Concentration over Time ([1]; 48 h): 1413 µM
- Concentration over Time ([1]; 60 h): 1281 µM
- Concentration over Time ([1]; 72 h): 1167 µM
- Concentration over Time ([1]; 84 h): 914.4 µM
- Concentration over Time ([1]; 96 h): 775.5 µM
- Concentration over Time ([1]; 120 h): 529.4 µM
- ln of concentration ([1]; 0 h): 1.23
- ln of concentration ([1]; 6 h): 1.181
- ln of concentration ([1]; 12 h): 1.09
- ln of concentration ([1]; 24 h): 0.7534
- ln of concentration ([1]; 36 h): 0.6308
- ln of concentration ([1]; 48 h): 0.3459
- ln of concentration ([1]; 60 h): 0.2476
- ln of concentration ([1]; 72 h): 0.1546
- ln of concentration ([1]; 84 h): −0.08945
- ln of concentration ([1]; 96 h): −0.2542
- ln of concentration ([1]; 120 h): −0.636

Structure (SMILES): C=C(C)C1C2OC(=O)C1(C)C1(O)C[C@H]3O[C@]34C(=O)OC2C14C (stereo partly drawn) [compound 20, 5-methylpicrotoxinin]
- IC50 (Rat GABAA Ion Channel): 9.2 µM and 9 µM
- Ki (Rat GABAA Ion Channel): 8.2 µM
- Concentration over Time ([1]; 0 h): 3270 µM
- Concentration over Time ([1]; 6 h): 3000 µM
- Concentration over Time ([1]; 12 h): 2771 µM
- Concentration over Time ([1]; 24 h): 2440 µM
- Concentration over Time ([1]; 36 h): 2195 µM
- Concentration over Time ([1]; 48 h): 2031 µM
- Concentration over Time ([1]; 60 h): 1912 µM
- Concentration over Time ([1]; 72 h): 1797 µM
- Concentration over Time ([1]; 84 h): 1686 µM
- Concentration over Time ([1]; 96 h): 1643 µM
- Concentration over Time ([1]; 120 h): 1535 µM
- aqueous stability compared with compound (1) ([1]; pH 8): slightly improved
- pseudo-first order rate constant compared with compound (1) ([1]; pH 8): more than halving
- ln of concentration ([1]; 0 h): 1.185
- ln of concentration ([1]; 6 h): 1.099
- ln of concentration ([1]; 12 h): 1.019
- ln of concentration ([1]; 24 h): 0.8921
- ln of concentration ([1]; 36 h): 0.786
- ln of concentration ([1]; 48 h): 0.7086
- ln of concentration ([1]; 60 h): 0.6483
- ln of concentration ([1]; 72 h): 0.586
- ln of concentration ([1]; 84 h): 0.5221
- ln of concentration ([1]; 96 h): 0.4967
- ln of concentration ([1]; 120 h): 0.4287
